# Like-named read-outs stand apart in the source and are kept apart here.
# Legend:
# [1] = target: T1, N-glucosamine-6-phosphate synthase (Escherichia coli, UniProt P17169); settings: substrate of the enzyme from Escherichia coli; cited from earlier work
# [2] = target: T1, N-glucosamine-6-phosphate synthase; assay: Product inhibition of N-glucosamine-6-phosphate synthase, spectrophotometric assay in crude cell extracts; assay type: biochemical; settings: FIG. 5; assays run with various concentrations of added product
# Method: N-glucosamine-6-phosphate synthase activity was measured in production strains containing integrated T7-glmS cassettes after growth in LB medium with and without IPTG (Table 2). N-glucosamine-6-phosphate synthase was assayed in crude cell extracts using either […] or spectrophotometric assays (Badet et al., 1987, Biochemistry 26:1940-1948) as described below. The extracts used for those assays were prepared by suspending washed cell pellets in 5 mL of 0.1 M KH2PO4/K2HPO4, pH 7.5 per gram of wet cell paste, passing the suspension through a French press at 16,000 psi, and centrifuging the disrupted cell suspension at 35,000-40,000 ×g for 15 to 20 minutes. The supernatant was used as the source of enzyme for the assay.
# In the spectrophotometric assay, 1 mL reactions containing 50 mM KH2PO4/K2HPO4, 10 mM fructose-6-phosphate, 6 mM L-glutamine, 10 mM KCl, 0.6 mM acetylpyridine adenine dinucleotide (APAD), and 50-60 Units of L-glutamic dehydrogenase (Sigma Type II from bovine liver) were run at room temperature. The activity was followed by monitoring the absorbance at 365 nm after the addition of extract and corrected for the small absorbance increase observed in the absence of extract. The activity was calculated using a molar extinction coefficient for APAD of 9100. […]
# [3] = target: T1, N-glucosamine-6-phosphate synthase; settings: White 1968, Biochem. J. 106:847-858; cited from earlier work
# T1 sequence (P17169 2-609): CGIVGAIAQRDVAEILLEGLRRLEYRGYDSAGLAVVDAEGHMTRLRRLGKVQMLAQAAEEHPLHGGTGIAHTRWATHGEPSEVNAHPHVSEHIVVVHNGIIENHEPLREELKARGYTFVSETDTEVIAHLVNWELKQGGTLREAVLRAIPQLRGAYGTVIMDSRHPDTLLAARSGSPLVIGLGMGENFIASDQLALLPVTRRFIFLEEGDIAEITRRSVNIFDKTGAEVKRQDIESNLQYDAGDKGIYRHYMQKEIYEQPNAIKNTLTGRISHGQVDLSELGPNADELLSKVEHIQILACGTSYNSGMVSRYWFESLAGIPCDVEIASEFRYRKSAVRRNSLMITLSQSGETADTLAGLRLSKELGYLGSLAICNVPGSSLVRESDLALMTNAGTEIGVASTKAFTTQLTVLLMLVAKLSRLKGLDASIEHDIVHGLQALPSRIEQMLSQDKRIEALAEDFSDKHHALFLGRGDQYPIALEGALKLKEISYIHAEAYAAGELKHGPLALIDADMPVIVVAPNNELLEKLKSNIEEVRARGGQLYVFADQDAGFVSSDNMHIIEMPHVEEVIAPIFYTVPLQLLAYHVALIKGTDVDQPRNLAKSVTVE
Structure (SMILES),Km [1],inhibition of N-glucosamine-6-phosphate synthase [2],inhibition of N-glucosamine-6-phosphate synthase [3]
NC(=O)CC[C@H](N)C(=O)O [glutamine],400 µM,,
O=C(CO)[C@@H](O)[C@H](O)[C@H](O)COP(=O)(O)O [fructose-6-phosphate],2000 µM,,
N[C@H]1C(O)O[C@H](CO)[C@@H](O)[C@@H]1O (some centres unmarked) [N-glucosamine],,slightly inhibited,
N[C@@H]1[C@@H](O)[C@H](O)[C@@H](COP(=O)(O)O)O[C@@H]1O [N-glucosamine-6-phosphate],,significantly inhibited,inhibited

# From patent publication US20020160459A1, “PROCESS FOR PRODUCTION OF N-GLUCOSAMINE” (priority 1999, published 2002)
